“And” between values parts separate entries of the source, which are not always exact repeats. Equal values may be shown once.
Experiments:
[1] = Headspace GC reduction of 1-propanethiol by protectant (Michael Acceptor) compounds; conditions: for Percent Thiol Reduction vs. Control: 0.1% SLS; for % Thiol Reduction: 0.1% sodium lauryl sulfate, 1% test compound, headspace
Experimental: For EXAMPLES 11 and 12 a 0.1% sodium lauryl sulfate (SLS) aqueous solution was prepared to contain either 1 ppm or 10 ppm of 1-propanethiol. SLS solution was added to the sample and control solutions to assist in solubilization of the more hydrophobic compounds. Control solutions contained surfactant and 1-propanethiol, while sample solutions contained these components plus a protectant compound added at either 0.01% or 0.05%. 100 μL aliquots of control or test solutions were aliquotted into a 22 mL headspace vial, vortexed for 30 seconds, and incubated for 30 minutes at 60 C in an oven. After that period, 1 mL of head space was sampled and injected into an Agilent 7890 gas chromatograph equipped with a sulfur chemiluminescence detector (GC-SCD). Peak areas of the 1-propanethiol control sample (no protectant compound added) were established by triplicate injection of the control sample. The area of the propanethiol peak produced from samples containing selected protectant molecules were then determined and ratioed to the 1-propanethiol control peak area, subtracted from 1, and multiplied by 100 to calculate percent reduction of the thiol peak, thus indicating the effectiveness of each protectant at reducing the level of thiol.
The samples in TABLE 17 were prepared by combining 1 ppm 1-propanethiol with 0.1% sodium lauryl sulfate with 1% of the test compounds. The volatile sulfurs were measured with headspace GC/MS using a SPEME column to capture the volatile sulfur.
The samples in TABLE 18 were prepared by combining either 1 or 10 ppm 1-propanethiol with 0.1% sodium lauryl sulfate with either 0.01% or 0.05% of the test compounds.

human TRPV1 [2] = biological target: T1, human TRPV1 (Homo sapiens, UniProt Q8NER1); assay: FLIPR Ca2+ assay, reduction of capsaicin activation of TRPV1; type: cell-based; set-up: expressed in transfected cells
Experimental: (§1) Cells were detached with addition of 10 ml of PBS (phosphate buffered saline) by hand shaking gently. Cells were transferred to a 50 ml tube and centrifuged at 850 rpm for 3 minutes to remove PBS.
The pelleted cells were re-suspended in 10 ml assay buffer and 90 μl aliquots (˜50,000 cells) per well delivered to a 96-well assay plate containing 10 μl of test compounds ([…]) or buffer control and incubated at room temperature for 30 minutes.

human TRPV1 [3] = biological target: T1, human TRPV1; assay: FLIPR Ca2+ assay, reduction of hydrogen peroxide activation of TRPV1; type: cell-based; set-up: expressed in transfected cells
Experimental: as §1
The pelleted cells were re-suspended in 10 ml assay buffer and 90 μl aliquots (˜50,000 cells) per well delivered to a 96-well assay plate containing 10 μl of test compounds (1 mM in assay buffer, […]) or buffer control and incubated at room temperature for 30 minutes.

[4] = Trained sensory panel, burn sensation after brushing with menthol dentifrice; type: in vivo, human; set-up: key: 0 = no burning to 60 = highest intensity; 7.5 difference = significant; conditions: scale 0-60
Experimental: (§2) For EXAMPLES 6 and 7 sensory evaluation studies of menthol and hydrogen peroxide activity were conducted using a methodology patterned after the techniques described in M. C. Meilgaard, et al., Sensory Evaluation Techniques, 4th Ed. (2007). In one study, a panel of 8-15 trained sensory experts evaluated the menthol or peroxide sensations experienced after brushing with a dentifrice containing the menthol or hydrogen peroxide and the respective TRPA1 or TRPV1 antagonists. Panelists brushed teeth with 1.5 grams of a dentifrice (containing coolant) or control (no coolant) and then expectorated. After brush expectoration, panelists evaluated the burn intensity, assigning a number between 0 (no burning) to 60 ([…]). After rinse expectoration, panelists evaluated burning intensity according to the same 0 to 60 scale. Evaluations were conducted at 5, 15, 30, 45, 60 minute, etc. time points. At each evaluation, panelists were instructed to breathe in through pursed lips and evaluate overall burning sensation. In this test, a numerical score difference from the control of 7.5 indicates user significant differences or definite reduction in burning at the specified time point. Measures between 4.0 to 7.5 indicate a noticeable trend in the specified parameter, which is not statistically significant, but noticeable.
For EXAMPLE 6 (TABLES 8 and 9), a panel of 14 trained sensory experts evaluated the sensory profile experienced after brushing with the dentifrice sample formulations shown in TABLES 6 and 7 containing high levels of menthol followed by rinsing with water. Panelists brushed teeth with 1.5 grams of a test dentifrice (containing high menthol levels) or control (no menthol) for 36 seconds and then expectorated. The dentifrice sample formulations (control and high L-Menthol) are shown below in TABLE 6 (with peppermint flavor) and TABLE 7 (with spearmint flavor). The dentifrices were made using conventional methods and are shown below with component amounts in weight % of total composition. […]
For TABLE 10 all the Samples had the same formulation as Sample E from TABLE 6, except for the Control which lacked menthol. After brushing or mouthwash expectoration, panelists evaluated the burning sensation, assigning a number between 0 (no sensation) to 60 (highest intensity sensation). Evaluations were conducted at 5, 10, 20 and 30 minute time points, following expectoration. At each evaluation, panelists were instructed to breathe in through pursed lips and evaluate overall sensation. In this test, a numerical score of 7.5 indicates a significant user noticeable sensation. Differences less than 7.5, but greater than 5.0 indicate the trending of the data on a specific attribute.

[5] = Trained sensory panel, burning and numbing sensation after hydrogen peroxide mouthwash; type: in vivo, human; set-up: key to Burning Sensation: 0 = no sensation, 60 = highest intensity sensation; conditions: scale 0-60
Experimental: as §2
For EXAMPLE 7, a panel of 10 trained sensory experts evaluated the sensory profile experienced after rinsing with 30 grams of a test mouthwash (containing hydrogen peroxide and TRPA1 or TRPV1 antagonist) or control (containing hydrogen peroxide and no TRPA1 or TRPV1 antagonist) for 30 seconds and then expectorated. After expectoration, panelists evaluated the sensorial profile (cooling, warming, burning, numbing, and astringency), assigning a number between 0 (no sensation) to 60 (highest intensity sensation). Evaluations were conducted at 2.5, 5, 10, 20, and 30 minute time points, following expectoration at each evaluation, panelists were instructed to breathe in through pursed lips and evaluate overall burning or numbing sensation. The hydrogen peroxide containing mouthwash formulations are shown below in TABLE 11. The mouthwash samples tested comprised a control having the components listed in TABLE 11 by weight % of the composition or the control formulation plus TRPA1 or TRPV1 antagonist, as shown in TABLE 12. The mouthwashes were made using conventional methods and are shown below with amounts in weight % of total composition.

human TRPA1 = human TRPA1 (Homo sapiens, UniProt O75762); assay: FLIPR intracellular Ca2+ assay, direct (agonist) effect on TRPA1; type: cell-based; set-up: expressed in transfected cells
Experimental: After centrifugation, a pellet of cells was formed in the bottom of the tube separating them from the supernatant solution.
The pelleted cells were re-suspended in 10 ml assay buffer and 90 μl aliquots (˜50,000 cells) per well delivered to a 96-well assay plate containing 10 μl of test compounds (1 mM in assay buffer, final concentration 100 μM) or buffer control and incubated at room temperature for 30 minutes.

[6] = 1 ppm 1-propanethiol, 0.01% test compound
[7] = 1 ppm 1-propanethiol, 0.05% test compound
[8] = 10 ppm 1-propanethiol, 0.01% test compound
[9] = 10 ppm 1-propanethiol, 0.05% test compound
[10] = 5 Min After Rinse, dentifrice Sample E (1% menthol) with antagonist levels as E42
[11] = 10 Min After Rinse, dentifrice Sample E (1% menthol) with antagonist levels as E42
[12] = 20 Min After Rinse, dentifrice Sample E (1% menthol) with antagonist levels as E42
[13] = 30 Min After Rinse, dentifrice Sample E (1% menthol) with antagonist levels as E42
[14] = After Expectoration, dentifrice Sample E (1% added menthol) with Apritone 200 ppm, Dihydrojasmone 6 ppm, Isobornyl Isobutyrate 100 ppm, α-heptyl-γ-valerolactone 100 ppm as named
[15] = After Rinse, dentifrice Sample E (1% menthol) with antagonist levels as E42
[16] = 2 Min 30 SEC After Expectoration, H2O2 mouthwash, antagonist levels as E48
[17] = 5 Min After Expectoration, H2O2 mouthwash, antagonist levels as E48
[18] = 10 Min After Expectoration, H2O2 mouthwash, antagonist levels as E48
[19] = 20 Min After Expectoration, H2O2 mouthwash, antagonist levels as E48
[20] = 30 Min After Expectoration, H2O2 mouthwash, antagonist levels as E48
[21] = After Expectoration, H2O2 mouthwash, antagonist levels as E48

T1 sequence (Q8NER1 whole entry): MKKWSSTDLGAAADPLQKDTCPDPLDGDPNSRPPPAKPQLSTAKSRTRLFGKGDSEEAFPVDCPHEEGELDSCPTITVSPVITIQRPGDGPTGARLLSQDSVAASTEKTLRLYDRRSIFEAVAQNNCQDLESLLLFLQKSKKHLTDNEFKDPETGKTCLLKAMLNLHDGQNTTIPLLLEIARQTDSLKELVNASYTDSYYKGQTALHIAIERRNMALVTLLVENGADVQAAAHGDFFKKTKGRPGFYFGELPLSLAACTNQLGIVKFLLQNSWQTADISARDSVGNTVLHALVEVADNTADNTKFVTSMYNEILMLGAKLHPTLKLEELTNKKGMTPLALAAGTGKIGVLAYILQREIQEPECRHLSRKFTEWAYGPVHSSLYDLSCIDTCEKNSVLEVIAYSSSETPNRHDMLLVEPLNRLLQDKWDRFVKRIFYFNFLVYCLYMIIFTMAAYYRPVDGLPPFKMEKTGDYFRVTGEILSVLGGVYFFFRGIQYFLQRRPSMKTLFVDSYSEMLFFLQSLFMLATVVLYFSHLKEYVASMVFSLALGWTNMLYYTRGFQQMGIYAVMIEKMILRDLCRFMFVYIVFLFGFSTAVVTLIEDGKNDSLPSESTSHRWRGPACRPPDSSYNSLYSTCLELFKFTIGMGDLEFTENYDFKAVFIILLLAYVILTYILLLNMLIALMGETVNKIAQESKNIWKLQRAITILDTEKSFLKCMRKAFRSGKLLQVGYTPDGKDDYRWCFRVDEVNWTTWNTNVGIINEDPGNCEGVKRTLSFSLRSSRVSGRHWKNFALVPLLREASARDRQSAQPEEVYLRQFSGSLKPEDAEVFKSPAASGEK
human TRPA1, sequence (O75762 whole entry): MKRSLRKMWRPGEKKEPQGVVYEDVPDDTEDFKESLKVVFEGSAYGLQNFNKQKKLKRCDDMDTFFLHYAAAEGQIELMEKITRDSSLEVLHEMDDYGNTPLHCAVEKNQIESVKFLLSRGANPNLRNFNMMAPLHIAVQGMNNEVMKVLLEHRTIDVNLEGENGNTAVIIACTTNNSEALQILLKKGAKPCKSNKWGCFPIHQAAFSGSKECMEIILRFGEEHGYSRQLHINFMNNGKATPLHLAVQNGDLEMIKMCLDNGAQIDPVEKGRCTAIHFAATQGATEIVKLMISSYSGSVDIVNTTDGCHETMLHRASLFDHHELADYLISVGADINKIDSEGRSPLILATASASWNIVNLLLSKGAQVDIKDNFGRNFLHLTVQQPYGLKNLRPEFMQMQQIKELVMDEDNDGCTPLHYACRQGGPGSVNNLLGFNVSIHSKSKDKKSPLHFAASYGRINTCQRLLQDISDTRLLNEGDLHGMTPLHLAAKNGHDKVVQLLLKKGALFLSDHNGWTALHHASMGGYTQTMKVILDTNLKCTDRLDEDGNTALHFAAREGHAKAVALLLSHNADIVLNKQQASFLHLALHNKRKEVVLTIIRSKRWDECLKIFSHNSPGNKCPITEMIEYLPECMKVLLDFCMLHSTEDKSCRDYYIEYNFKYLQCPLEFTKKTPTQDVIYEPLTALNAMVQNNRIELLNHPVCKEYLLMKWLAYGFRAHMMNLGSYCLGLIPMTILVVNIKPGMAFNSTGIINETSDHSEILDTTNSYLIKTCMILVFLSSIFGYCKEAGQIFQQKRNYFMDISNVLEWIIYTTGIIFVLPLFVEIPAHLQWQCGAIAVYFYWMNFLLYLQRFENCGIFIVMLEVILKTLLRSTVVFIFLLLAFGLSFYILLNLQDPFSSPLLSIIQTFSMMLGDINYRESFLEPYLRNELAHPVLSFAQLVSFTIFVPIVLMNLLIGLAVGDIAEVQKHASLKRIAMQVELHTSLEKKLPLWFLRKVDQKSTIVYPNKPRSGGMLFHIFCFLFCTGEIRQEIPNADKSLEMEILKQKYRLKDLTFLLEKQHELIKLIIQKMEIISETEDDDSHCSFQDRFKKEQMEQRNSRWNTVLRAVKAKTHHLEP

C/C=C/C(=O)C1C(C)C=CCC1(C)C (stereo not drawn) [delta damascone]
thiol reduction, comparison in words ([1]; 10 ppm 1-propanethiol, compound 0.01%): higher activity at its lower concentration (0.01%) than any of the other michael acceptor's

CCCCCC1=C(C)CCC1=O [Dihydrojasmone]
% inhibition of TRPV1 activation by 350 nM Capsaicin (human TRPV1 [2]; Dose 4000): 4%
Ca++ counts (human TRPV1 [2]; with compound, Dose 4000, 350 nM Capsaicin): 11397
% inhibition of TRPV1 activation by 500 uM H2O2 (human TRPV1 [3]; Dose 4000): 98%
% Reduction of Hydrogen Peroxide TRPV1 Activation (human TRPV1 [3]; antagonist 400 μM against 500 μM hydrogen peroxide): 98%
Ca++ counts (human TRPV1 [3]; with compound, Dose 4000, 500 uM H2O2): 38
Percent Thiol Reduction vs. Control [1, 6]: 79.0%
Percent Thiol Reduction vs. Control [1, 7]: 92.1%
% Thiol Reduction ([1]; 1 ppm 1-propanethiol): significantly or completely reduced sulfur production
thiol reduction, comparison in words ([1]; 1 ppm 1-propanethiol, compound 0.01% and 0.05%): better reduction in thiol than delta damascone
Percent Thiol Reduction vs. Control [1, 8]: 41.3%
Percent Thiol Reduction vs. Control [1, 9]: 66.7%
thiol reduction, comparison in words ([1]; 10 ppm 1-propanethiol, compound 0.05%): close to delta damascone's thiol reduction
Burning Sensation Rating [4, 10]: 11.3
Burning Sensation Rating [4, 11]: 2.5
Burning Sensation Rating [4, 12]: 0.0
Burning Sensation Rating [4, 13]: 0.0
Burning Sensation Rating [4, 14]: 24.1
Burning Sensation Rating [4, 15]: 21.3
Burning Sensation [5, 16]: 13.1
Numbing Sensation [5, 16]: 6.9
Burning Sensation [5, 17]: 8.9
Numbing Sensation [5, 17]: 6.3
Burning Sensation [5, 18]: 2.8
Numbing Sensation [5, 18]: 0.8
Burning Sensation [5, 19]: 0.8
Numbing Sensation [5, 19]: 0.0
Burning Sensation [5, 20]: 0.6
Numbing Sensation [5, 20]: 0.0
Burning Sensation [5, 21]: 16.9
Numbing Sensation [5, 21]: 6.9
Burning Sensation ([5]; Initial in Mouth, hydrogen peroxide mouthwash (TABLE 11) with Apritone 200 ppm, Isobornyl Isobutyrate 100 ppm, Dihydrojasmone 6 ppm as named, 10 panelists): 12.5

CC/C=C\CC1=C(C)CCC1=O [cis-Jasmone]
Percent Thiol Reduction vs. Control [1, 6]: 36.1%
Percent Thiol Reduction vs. Control [1, 7]: 55.3%
Percent Thiol Reduction vs. Control [1, 8]: 25.4%
Percent Thiol Reduction vs. Control [1, 9]: 8.2%

CCc1occc(=O)c1O [Ethyl maltol]
% Thiol Reduction ([1]; 1 ppm 1-propanethiol): −17.2%

CCCCCCCC1CC(C)OC1=O (stereo not drawn) [α-heptyl-γ-valerolactone]
Burning Sensation Rating [4, 10]: 13.8
Burning Sensation Rating [4, 11]: 1.3
Burning Sensation Rating [4, 12]: 0.0
Burning Sensation Rating [4, 13]: 0.0
Burning Sensation Rating [4, 14]: 25.4
Burning Sensation Rating [4, 15]: 21.5

C=CCN=C=S [AITC, allyl isothiocyanate]
Average Ca++ Counts (human TRPA1; AITC 50 μM alone, each Set 1-4): 8322.5 Counts and 14138.2 Counts and 15213.0 Counts and 11209.0 Counts
Ca2+ Count, TRPA1 (human TRPA1; control agonist AITC 50 μM): 12219 Count

— patent US20130315843A1, “COMPOSITION FOR REDUCTION OF TRPA1 AND TRPV1 SENSATIONS” (priority 2012, published 2013)
